Among the data in ChEMBL document CHEMBL4270551, “Biological evaluation and structure-activity relationships of imidazole-based compounds as antiprotozoal agents” (Eur J Med Chem, 2018) are IC50, CC50 and selectivity ratio values, retold here.

One may read the pIC50 as the IC50 on a negative log10 scale, so that one unit is a factor of ten. The CC50 is the concentration that lowers cell viability or growth by half.

Data set [1] deals with Trypanosoma brucei rhodesiense. Kind of data set: Antiprotozoal activity against Trypanosoma brucei rhodesiense STIB900 trypomastigote after 72 hrs by Alamar Blue assay. Format: functional, organism-based. The conditions noted are these: STIB900, 72 h. A general note: Alamar Blue is a resazurin reagent that responds to reducing activity.
The subject of another data set is Trypanosoma cruzi. The data set can be described thus: Antitrypanosomal activity against Trypanosoma cruzi Tulahuen strain C2C4 amastigote forms infected in rat L6 cells after 96 hrs by CPRG/Nonidet reagent based photometric method. As to conditions: Tulahuen strain C2C4, L6, 96 h. Format: functional, organism-based.
The next data set has as its system Leishmania donovani. The data set can be described thus: Antileishmanial activity against Leishmania donovani MHOM/ET/67/L82 axenic amastigotes after 72 hrs by alamar blue staining based fluorescence assay. As to conditions: MHOM/ET/67/L82, 72 h. In kind it is functional, organism-based.
Another data set deals with Plasmodium falciparum. The data set can be described thus: Antiprotozoal activity against erythrocytic stage of chloroquine and pyrimethamine resistant Plasmodium falciparum K1 assessed as reduction in [3H]-hypoxanthine incorporation preincubated for 24 hrs followed by [3H]-hypoxanthine addition measured after 24 hrs by scintillation counting method. Format: functional, organism-based.

Data set [2] in a line: Cytotoxicity against rat L6 cells after 72 hrs by alamar blue staining based fluorescence assay. Format: cell-based.
Data set [3] is described as follows: Selectivity index, ratio of CC50 for rat L6 cells to IC50 for Trypanosoma brucei rhodesiense STIB900 trypomastigote. The conditions noted are these: read-out: Ratio CC50/IC50. In kind it is toxicity.
The nature of data set [4]: Selectivity index, ratio of CC50 for rat L6 cells to IC50 for Trypanosoma cruzi Tulahuen strain C2C4 amastigote forms infected in rat L6 cells. In kind it is toxicity, cell-based. The conditions noted are these: read-out: Ratio CC50/IC50.
Data set [5] is described as follows: Selectivity index, ratio of CC50 for rat L6 cells to IC50 for Leishmania donovani MHOM/ET/67/L82 axenic amastigotes. The conditions noted are these: read-out: Ratio CC50/IC50. In kind it is toxicity.
The nature of data set [6]: Selectivity index, ratio of CC50 for rat L6 cells to IC50 for erythrocytic stage of chloroquine and pyrimethamine resistant Plasmodium falciparum K1. As to conditions: read-out: Ratio CC50/IC50. In kind it is toxicity.

pIC50: −log10 of the molar value. Some results are limits rather than exact numbers.

For the compound `O=[N+]([O-])c1ccc(-c2c[nH]cc2C(c2ccc(Cl)cc2Cl)n2ccnc2)cc1` (stereo not drawn), the pIC50 is 5.25 in data set [1], 5.49 with Trypanosoma cruzi, 5.11 with Leishmania donovani and 6.32 in the data set on Plasmodium falciparum. Further, the CC50 at 72 h in data set [2] came to 16.9 µM. The selectivity ratio in data set [3] came to 3; in data set [4], 5; in data set [5] it was 2; in [6] it was 35.

Regarding `O=C(Cn1ccnc1[N+](=O)[O-])NCc1ccccc1` [BENZNIDAZOLE], in the data set on Trypanosoma cruzi, the pIC50 is 5.78.

Take `Fc1ccc(-n2ccc(C(c3ccccc3)n3ccnc3)c2)cc1` (stereo not drawn): the pIC50 in data set [1] is 4.69; in the data set with Trypanosoma cruzi, 5.21; with Leishmania donovani, 4.50; with Plasmodium falciparum it was 5.27. This compound also came in with a CC50 at 72 h in [2] of 104 µM. Besides, the selectivity ratio came out at 5 in [3], 17 in [4], 3 in [5] and 19 in data set [6].

As for `CSc1ccc(-c2c[nH]cc2C(c2ccc(Cl)cc2Cl)n2ccnc2)cc1` (stereo not drawn), the pIC50 is 4.80 in data set [1], 7.37 in the data set on Trypanosoma cruzi, 5.29 with Leishmania donovani and 6.62 in the data set with Plasmodium falciparum. The compound further had a CC50 at 72 h in [2] of 7.22 µM. For the same compound, the selectivity ratio in [4] came to 168; in data set [5], 1; in data set [6], 30.

For `Clc1ccc(C(c2c[nH]cc2-c2cccc3ccccc23)n2ccnc2)c(Cl)c1` (stereo not drawn), the pIC50 was 4.92 in data set [1], 7.02 in the data set on Trypanosoma cruzi, 5.72 in the data set on Leishmania donovani and 6.48 in the data set with Plasmodium falciparum. Besides, the CC50 at 72 h in [2] turned out to be 12.3 µM. The selectivity ratio in data set [3] is 1; in data set [4] it was 128; in data set [5], 6; in [6], 37.

In the case of `Clc1ccc(C(c2c[nH]cc2-c2ccc(-c3ccccc3)cc2)n2ccnc2)c(Cl)c1` (stereo not drawn), the pIC50 in data set [1] is 4.75; in the data set with Trypanosoma cruzi it was 4.49; in the data set on Leishmania donovani it was 4.91; in the data set on Plasmodium falciparum, below 4.96. The same compound returned a CC50 at 72 h in data set [2] above 202 µM.

Take `Fc1ccc(-n2ccc(C(c3ccc(Cl)cc3)n3ccnc3)c2)cc1` (stereo not drawn): the pIC50 in data set [1] is 4.77; in the data set on Trypanosoma cruzi it was 5.48; in the data set with Leishmania donovani, 4.98; in the data set on Plasmodium falciparum it was 5.50. The same compound registered a CC50 at 72 h in data set [2] of 47.5 µM. For the same compound, the selectivity ratio came out at 3 in data set [3], 14 in data set [4], 5 in data set [5] and 15 in data set [6].

As for `Clc1ccc(C(c2c[nH]cc2-c2ccc(-c3ccncc3)cc2)n2ccnc2)c(Cl)c1` (stereo not drawn), the pIC50 in data set [1] was 5.01; with Trypanosoma cruzi it was 5.62; in the data set on Leishmania donovani, 5.12; with Plasmodium falciparum, 6.54. For the same compound, in [2], the CC50 at 72 h turned out to be 15.5 µM. Also, the selectivity ratio in [3] was determined as 2; in data set [4], 6; in [5] it was 2; in data set [6] it was 53.

As for `Nc1nc(N)nc(Nc2ccc([As]3SCC(CO)S3)cc2)n1` (stereo not drawn) [MELARSOPROL], the pIC50 in data set [1] was 8.06.

For `CCCCCCCCCCCCCCCCOP(=O)([O-])OCC[N+](C)(C)C` [MILTEFOSINE], the pIC50 with Leishmania donovani is 6.25.

As for `Fc1ccc(C(c2ccn(-c3ccc(Cl)cc3)c2)n2ccnc2)cc1` (stereo not drawn), the pIC50 in data set [1] was 4.44; in the data set with Trypanosoma cruzi, 5.43; in the data set on Leishmania donovani, 4.80; in the data set on Plasmodium falciparum, 5.40. Moreover, in [2], the CC50 at 72 h came out at 63.1 µM. In addition, the selectivity ratio in data set [3] was determined as 2; in [4], 17; in data set [5], 4; in [6], 16.

As to `FC(F)(F)c1ccc(-c2c[nH]cc2C(c2ccc(Cl)cc2Cl)n2ccnc2)cc1` (stereo not drawn), the negative-log IC50 (pIC50) is 4.95 in data set [1], 7.30 in the data set with Trypanosoma cruzi, 4.92 in the data set on Leishmania donovani and 6.85 in the data set with Plasmodium falciparum. Besides, it took 9.4 µM to reach half-maximal cytotoxicity in [2] (CC50 at 72 h). Further, the selectivity ratio in [4] came out at 188; in [6], 67.

With `Fc1ccc(C(c2ccn(-c3ccc(F)cc3)c2)n2ccnc2)cc1` (stereo not drawn), the pIC50 in data set [1] is 4.36; in the data set with Trypanosoma cruzi, 5.34; in the data set with Leishmania donovani, 4.34; in the data set with Plasmodium falciparum, 5.35. This compound also returned a CC50 at 72 h in data set [2] of 87.1 µM. Besides, the selectivity ratio in data set [3] worked out at 2; in [4] it was 19; in [5], 2; in [6] it was 20.

Consider `Clc1ccc(-c2c[nH]cc2C(c2ccc(Cl)cc2)n2ccnc2)cc1` (stereo not drawn), for which the pIC50 in [1] was 4.80; in the data set on Trypanosoma cruzi, 7.24; in the data set with Leishmania donovani, 5.15; in the data set with Plasmodium falciparum it was 6.89. Besides, in data set [2], the CC50 at 72 h worked out at 4.83 µM. The selectivity ratio was determined as 85 in data set [4], 1 in [5] and 37 in data set [6].

For `CC(C)(C)c1ccc(-c2c[nH]cc2C(c2ccc(Cl)cc2Cl)n2ccnc2)cc1` (stereo not drawn), the pIC50 in [1] was 4.38; with Trypanosoma cruzi, 4.89; with Leishmania donovani, 5.16; in the data set on Plasmodium falciparum, 6.42. Further, half-maximal cytotoxicity in data set [2] (CC50 at 72 h) was put at 22.9 µM. For the same compound, the selectivity ratio in data set [4] worked out at 2; in [5], 3; in [6], 60.

In the case of `c1ccc(C(c2ccn(-c3ccccc3)c2)n2ccnc2)cc1` (stereo not drawn), the pIC50 in [1] is 4.46; in the data set on Trypanosoma cruzi, 5.41; with Leishmania donovani it was 4.84; in the data set with Plasmodium falciparum it was 5.38. Besides, the CC50 at 72 h in [2] is 80.8 µM. Also, the selectivity ratio in data set [3] worked out at 2; in [4] it was 21; in [5], 6; in data set [6], 20.

Consider `Cc1ccc(C(c2ccn(-c3ccc(Cl)cc3)c2)n2ccnc2)cc1` (stereo not drawn), for which the pIC50 was 4.27 in [1], 5.76 with Trypanosoma cruzi, 4.90 in the data set with Leishmania donovani and 5.60 with Plasmodium falciparum. Moreover, the CC50 at 72 h in data set [2] was 42.6 µM. Further, the selectivity ratio in [4] was 25; in [5] it was 3; in data set [6], 17.

Take `COc1cc([C@@H]2c3cc4c(cc3[C@H](O)[C@H]3COC(=O)[C@H]23)OCO4)cc(OC)c1OC` [PODOFILOX]: the CC50 at 72 h in data set [2] came to 0.007 µM.

As for `Cc1ccc(C(c2ccn(-c3ccc(F)cc3)c2)n2ccnc2)cc1` (stereo not drawn), the pIC50 was 4.80 in data set [1], 5.53 in the data set on Trypanosoma cruzi, 4.56 with Leishmania donovani and 5.66 with Plasmodium falciparum. In data set [2], this compound came in with a CC50 at 72 h of 60.6 µM. Moreover, the selectivity ratio in [3] turned out to be 4; in data set [4] it was 21; in [5], 2; in data set [6], 28.

In the case of `N#Cc1ccc(-c2c[nH]cc2C(c2ccc(Cl)cc2Cl)n2ccnc2)cc1` (stereo not drawn), the pIC50 in [1] was 4.93; with Trypanosoma cruzi, 5.00; in the data set with Leishmania donovani, 5.06; in the data set with Plasmodium falciparum, 6.18. This compound showed a CC50 at 72 h in data set [2] of 15 µM. Further, the selectivity ratio in data set [3] is 1; in data set [4] it was 2; in [5], 2; in data set [6], 23.
